Results reported in patent publication US11254663B2 (BRISTOL-MYERS SQUIBB COMPANY, priority 2019, dated 2022).

Biological target: FXR (Homo sapiens (Human), UniProt Q96RI1)
Assay: transient human FXR/Gal4-luciferase reporter assay
Assay type: cell-based
Conditions: Gal4-hFXR fusion construct, HEK293 reporter cells; response relative to 8 μM GW-4064
Method in brief: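 Compound exposure ran overnight at 37 °C and activity was measured as luminescence with Steady-Glo reagent. The cells were a HEK293 line stably expressing firefly luciferase under five Gal4 response elements. They were transiently transfected, one night beforehand, with a plasmid encoding Gal4 DNA-binding domain fused to the human FXR ligand-binding domain.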

Sequence of FXR (Q96RI1 262-486): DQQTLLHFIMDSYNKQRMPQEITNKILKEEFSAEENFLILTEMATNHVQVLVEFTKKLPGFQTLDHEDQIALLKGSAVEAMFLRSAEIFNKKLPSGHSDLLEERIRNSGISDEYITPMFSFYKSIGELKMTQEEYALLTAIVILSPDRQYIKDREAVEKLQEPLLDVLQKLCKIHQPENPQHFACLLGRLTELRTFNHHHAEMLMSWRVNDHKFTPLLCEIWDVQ

Structure (SMILES) | EC50 [nM]
Cc1nc2ccc(-c3cccc(N(CC45CCC(c6nc(C(C)C)no6)(CC4)CC5)C(=O)C45CC(F)(C4)C5)c3)cc2s1 [Example 378, 3-fluoro-N-((4-(3-isopropyl-1,2,4-oxadiazol-5-yl)bicyclo[2.2.2]octan-1-yl)methyl)-N-(3-(2-methylbenzo[d]thiazol-6-yl)phenyl)bicyclo[1.1.1]pentane-1-carboxamide] | 53
CC(C)c1noc(C23CCC(CN(C(=O)C45CC(F)(C4)C5)c4cccc(-c5ccc(NS(=O)(=O)C6CC6)cc5)c4)(CC2)CC3)n1 [Example 379, N-(4′-(cyclopropanesulfonamido)-[1,1′-biphenyl]-3-yl)-3-fluoro-N-((4-(3-isopropyl-1,2,4-oxadiazol-5-yl)bicyclo[2.2.2]octan-1-yl)methyl)bicyclo[1.1.1]pentane-1-carboxamide] | 132
CC(C)c1noc(C23CCC(CN(C(=O)C45CC(F)(C4)C5)c4cccc(-c5ccc(C(F)(F)F)cc5)c4)(CC2)CC3)n1 [Example 380, 3-fluoro-N-((4-(3-isopropyl-1,2,4-oxadiazol-5-yl)bicyclo[2.2.2]octan-1-yl)methyl)-N-(4′-(trifluoromethyl)-[1,1′-biphenyl]-3-yl)bicyclo[1.1.1]pentane-1-carboxamide] | 283
CCOc1ccc(-c2cccc(N(CC34CCC(c5nc(C(C)C)no5)(CC3)CC4)C(=O)C34CC(F)(C3)C4)c2)cn1 [Example 381, N-(3-(6-ethoxypyridin-3-yl)phenyl)-3-fluoro-N-((4-(3-isopropyl-1,2,4-oxadiazol-5-yl)bicyclo[2.2.2]octan-1-yl)methyl)bicyclo[1.1.1]pentane-1-carboxamide] | 40
COc1ccc(-c2cccc(N(CC34CCC(c5nc(C(C)C)no5)(CC3)CC4)C(=O)C34CC(F)(C3)C4)c2)cn1 [Example 382, 3-fluoro-N-((4-(3-isopropyl-1,2,4-oxadiazol-5-yl)bicyclo[2.2.2]octan-1-yl)methyl)-N-(3-(6-methoxypyridin-3-yl)phenyl)bicyclo[1.1.1]pentane-1-carboxamide] | 98
COc1ncc(-c2cccc(N(CC34CCC(c5nc(C(C)C)no5)(CC3)CC4)C(=O)C34CC(F)(C3)C4)c2)cn1 [Example 383, 3-Fluoro-N-((4-(3-isopropyl-1,2,4-oxadiazol-5-yl)bicyclo[2.2.2]octan-1-yl)methyl)-N-(3-(2-methoxypyrimidin-5-yl)phenyl)bicyclo[1.1.1]pentane-1-carboxamide] | 47
CC(C)c1noc(C23CCC(CN(C(=O)C45CC(F)(C4)C5)c4cccc(-c5cnc(C(F)(F)F)nc5)c4)(CC2)CC3)n1 [Example 384, 3-fluoro-N-((4-(3-isopropyl-1,2,4-oxadiazol-5-yl)bicyclo[2.2.2]octan-1-yl)methyl)-N-(3-(2-(trifluoromethyl)pyrimidin-5-yl)phenyl)bicyclo[1.1.1]pentane-1-carb oxamide] | 184
CC(C)c1noc(C23CCC(CN(C(=O)C45CC(F)(C4)C5)c4cccc(-c5cnc(C6CC6)nc5)c4)(CC2)CC3)n1 [Example 385, N-(3-(2-cyclopropylpyrimidin-5-yl)phenyl)-3-fluoro-N-((4-(3-isopropyl-1,2,4-oxadiazol-5-yl)bicyclo[2.2.2]octan-1-yl)methyl)bicyclo[1.1.1]pentane-1-carboxamide] | 35
CC(C)c1noc(C23CCC(CN(C(=O)C45CC(F)(C4)C5)c4cccc(-c5ccc6c(c5)OC(F)(F)O6)c4)(CC2)CC3)n1 [Example 386, N-(3-(2,2-difluorobenzo[d][1,3]dioxol-5-yl)phenyl)-3-fluoro-N-((4-(3-isopropyl-1,2,4-oxadiazol-5-yl)bicyclo[2.2.2]octan-1-yl)methyl)bicyclo[1.1.1]pentane-1-carboxamide] | 274
CC(C)c1noc(C23CCC(CN(C(=O)C45CC(F)(C4)C5)c4cccc(-c5ccc(OC(F)F)cc5)c4)(CC2)CC3)n1 [Example 387, N-(4′-(difluoromethoxy)-[1,1′-biphenyl]-3-yl)-3-fluoro-N-((4-(3-isopropyl-1,2,4-oxadiazol-5-yl)bicyclo[2.2.2]octan-1-yl)methyl)bicyclo[1.1.1]pentane-1-carboxamide] | 47
CC(C)c1noc(C23CCC(CN(C(=O)C45CC(F)(C4)C5)c4cccc(-c5ccc(C(F)(F)F)nc5)c4)(CC2)CC3)n1 [Example 388, 3-fluoro-N-((4-(3-isopropyl-1,2,4-oxadiazol-5-yl)bicyclo[2.2.2]octan-1-yl)methyl)-N-(3-(6-(trifluoromethyl)pyridin-3-yl)phenyl)bicyclo[1.1.1]pentane-1-carboxamide] | 906
Cc1nc2ncc(-c3cccc(N(CC45CCC(c6nc(C(C)C)no6)(CC4)CC5)C(=O)C45CC(F)(C4)C5)c3)cc2s1 [Example 389, 3-fluoro-N-((4-(3-isopropyl-1,2,4-oxadiazol-5-yl)bicyclo[2.2.2]octan-1-yl)methyl)-N-(3-(2-methylthiazolo[4,5-b]pyridin-6-yl)phenyl)bicyclo[1.1.1]pentane-1-carboxamide] | 61
CC(C)c1noc(C23CCC(CN(C(=O)C45CC(F)(C4)C5)c4cccc(-c5ccc(NS(=O)(=O)C(F)(F)F)cc5)c4)(CC2)CC3)n1 [Example 390, 3-fluoro-N-((4-(3-isopropyl-1,2,4-oxadiazol-5-yl)bicyclo[2.2.2]octan-1-yl)methyl)-N-(4′-((trifluoromethyl)sulfonamido)-[1,1′-biphenyl]-3-yl)bicyclo[1.1.1]pentane-1-carboxamide] | 96
COCc1ccc(-c2cccc(N(CC34CCC(c5nc(C(C)C)no5)(CC3)CC4)C(=O)C34CC(F)(C3)C4)c2)cn1 [Example 391, 3-fluoro-N-((4-(3-isopropyl-1,2,4-oxadiazol-5-yl)bicyclo[2.2.2]octan-1-yl)methyl)-N-(3-(6-(methoxymethyl)pyridin-3-yl)phenyl)bicyclo[1.1.1]pentane-1-carboxamide] | 147
COCc1ccc(-c2cccc(N(CC34CCC(c5nc(C(C)C)no5)(CC3)CC4)C(=O)C34CC(F)(C3)C4)c2)cc1 [Example 392, 3-fluoro-N-((4-(3-isopropyl-1,2,4-oxadiazol-5-yl)bicyclo[2.2.2]octan-1-yl)methyl)-N-(4′-(methoxymethyl)-[1,1′-biphenyl]-3-yl)bicyclo[1.1.1]pentane-1-carboxamide] | 183
Cc1cnc(-c2cccc(N(CC34CCC(c5nc(C(C)C)no5)(CC3)CC4)C(=O)C34CC(F)(C3)C4)c2)nc1 [Example 393, 3-fluoro-N-((4-(3-isopropyl-1,2,4-oxadiazol-5-yl)bicyclo[2.2.2]octan-1-yl)methyl)-N-(3-(5-methylpyrimidin-2-yl)phenyl)bicyclo[1.1.1]pentane-1-carboxamide] | 49
CCc1cnc(-c2cccc(N(CC34CCC(c5nc(C(C)C)no5)(CC3)CC4)C(=O)C34CC(F)(C3)C4)c2)nc1 [Example 394, N-(3-(5-ethylpyrimidin-2-yl)phenyl)-3-fluoro-N-((4-(3-isopropyl-1,2,4-oxadiazol-5-yl)bicyclo[2.2.2]octan-1-yl)methyl)bicyclo[1.1.1]pentane-1-carboxamide] | 77
CCOc1cnc(-c2cccc(N(CC34CCC(c5nc(C(C)C)no5)(CC3)CC4)C(=O)C34CC(F)(C3)C4)c2)nc1 [Example 395, N-(3-(5-ethoxypyrimidin-2-yl)phenyl)-3-fluoro-N-((4-(3-isopropyl-1,2,4-oxadiazol-5-yl)bicyclo[2.2.2]octan-1-yl)methyl)bicyclo[1.1.1]pentane-1-carboxamide] | 156
CCOc1ncc(-c2cccc(N(CC34CCC(c5noc(C6(C)CC6)n5)(CC3)CC4)C(=O)C34CC(F)(C3)C4)c2)cn1 [Example 396, N-(3-(2-ethoxypyrimidin-5-yl)phenyl)-3-fluoro-N-((4-(5-(1-methylcyclopropyl)-1,2,4-oxadiazol-3-yl)bicyclo[2.2.2]octan-1-yl)methyl)bicyclo[1.1.1]pentane-1-carboxamide] | 46
CC1(c2nc(C34CCC(CN(C(=O)C56CC(F)(C5)C6)c5cccc(-c6ccc(NS(=O)(=O)C7CC7)cc6)c5)(CC3)CC4)no2)CC1 [Example 397, N-(4′-(cyclopropanesulfonamido)-[1,1′-biphenyl]-3-yl)-3-fluoro-N-((4-(5-(1-methylcyclopropyl)-1,2,4-oxadiazol-3-yl)bicyclo[2.2.2]octan-1-yl)methyl) bicyclo[1.1.1]pentane-1-carboxamide] | 183
CC1(c2nc(C34CCC(CN(C(=O)C56CC(F)(C5)C6)c5cccc(-c6ccc(NS(C)(=O)=O)cc6)c5)(CC3)CC4)no2)CC1 [Example 398, 3-fluoro-N-((4-(5-(1-methylcyclopropyl)-1,2,4-oxadiazol-3-yl)bicyclo[2.2.2]octan-1-yl)methyl)-N-(4′-(methylsulfonamido)-[1,1′-biphenyl]-3-yl)bicyclo[1.1.1]pentane-1-carboxamide] | 93
CCOc1ccc(-c2cccc(N(CC34CCC(c5noc(C6(C)CC6)n5)(CC3)CC4)C(=O)C34CC(F)(C3)C4)c2)cc1 [Example 399, N-(4′-ethoxy-[1,1′-biphenyl]-3-yl)-3-fluoro-N-((4-(5-(1-methylcyclopropyl)-1,2,4-oxadiazol-3-yl)bicyclo[2.2.2]octan-1-yl)methyl)bicyclo[1.1.1]pentane-1-carboxamide] | 58
COc1ncc(-c2cccc(N(CC34CCC(c5noc(C6(C)CC6)n5)(CC3)CC4)C(=O)C34CC(F)(C3)C4)c2)cn1 [Example 400, 3-fluoro-N-(3-(2-methoxypyrimidin-5-yl)phenyl)-N-((4-(5-(1-methylcyclopropyl)-1,2,4-oxadiazol-3-yl)bicyclo[2.2.2]octan-1-yl)methyl)bicyclo[1.1.1]pentane-1-carboxamide] | 51
CCOc1ccc(-c2cccc(N(CC34CCC(c5noc(C6(C)CC6)n5)(CC3)CC4)C(=O)C34CC(F)(C3)C4)c2)cn1 [Example 401, N-(3-(6-ethoxypyridin-3-yl)phenyl)-3-fluoro-N-((4-(5-(1-methylcyclopropyl)-1,2,4-oxadiazol-3-yl)bicyclo[2.2.2]octan-1-yl)methyl)bicyclo[1.1.1]pentane-1-carboxamide] | 42
